Patent US20090054376A1, “BENZOFURAN DERIVATIVES WITH THERAPEUTIC ACTIVITIES” (Pharmos Corporation, priority 2005, published 2009)

Columns and labels:
[1] = test system: TNBS induced inflammatory bowel disease; experiment: TNBS induced inflammatory bowel disease; assay type: in vivo, Female Balb/C mice; settings: 20 mg/kg i.p. daily
Description: Female Balb/C mice (average body weight 20 g, Harlan, Israel) were lightly sedated and challenged rectally, by instillation with 70 μl of 2.5% TNBS (Sigma) dissolved in 50% ethanol, to induce intestinal inflammation and colitis. Animals were weighted before the beginning of the study and treatment was administered i.p. on a daily basis for six days at 20 mg/kg and volume dosage of 5 ml/kg. During the study period of up to 7 days, the following parameters were daily monitored and recorded: body weight, presence of blood in the stool and stool consistency. These findings are scored according to Table 6 [Murthy S.N. et al., Dig. Dis. Sci. 38:1722-34, 1993].
On the last day of the study, animals were euthanized. Abdomen was open and the colon was sectioned at the level of the caecum and the rectum. The colon was weighted and its length was measured. The whole column was excised, slited longitudinally, and examined under a magnifying lens. Any visible damage was recorded and scored for gross pathology according to Wong [Wong et al., J. Pharm. Exp. Ther. 274: 475-80, 1995]. Namely, a score of 0 indicates no damage, 1 indicates localized hyperemia and/or edema, 2 indicates at least two sites of hyperemia and/or edema, 3 indicates localized erosion, 4 indicates localized ulcer and 5 indicates either an erosion site or ulcer extending for more than 2 cm along the colon or at least two sites of erosion or ulcer. Finally, the entire colon was fixed in 4% formaldehyde for histopathological evaluation.
Each treatment group comprised at least seven animals. The following groups served as negative controls: naïve animals, sham animals that received 70 μl of 50% ethanol without TNBS, and TNBS challenged untreated and vehicle treated animals. A group of animals receiving 10 mg/kg sulfasalazine served as positive controls. Sulfasalazine is a standard anti-inflammatory drug used for the treatment of mild to moderate ulcerative colitis and Crohn's disease, and as adjunctive therapy in the treatment of severe ulcerative colitis. This drug is also used for the treatment of non-IBD related disorders, such as rheumatoid arthritis and ankylosing spondylitis. The recognized side effect of this medicament is its hepatotoxicity upon chronic treatment.

[2] = test system: oxazolone induced DTH, ear thickness; experiment: Oxazolone induced delayed type hypersensitivity; assay type: in vivo, Male ICR mice; settings: for decrease in ΔThickness, inhibition as compared to untreated animals: day one after challenge
Description: Male ICR mice (average body weight 20-25 g, Harlan, Israel) were anesthetized using a mixture of 35 mg/kg ketamine and 8 mg/kg xylazine. The abdomen of the sedated animals was shaved, and the animals were sensitized by topical application of 2% oxazolone in acetone:sesame oil (4:1 volume per volume), 100 μl to the shaved abdomen and 5 μl to each paw. Five days later, the sensitized mice were anesthetized again and their right ear was challenged with 10 μl of 1% oxazolone. Immediately before this challenge, vehicle (5 ml/kg) or test compounds were administered i.v. Each treatment group comprised at least 5 animals. The ear thickness was measured 24 and 48 hours following challenge using a micrometer. The difference in ear thickness (ΔThickness) between the challenged and non-challenged ear was calculated. The average ΔThickness and SEM were calculated on each day following challenge (baseline) for all treatment groups.

[3] = test system: mechanical allodyna after chronic constriction of the sciatic nerve; experiment: Neuropathic pain, chronic constriction of the sciatic nerve (CCI); assay type: in vivo, Male Sprague Dawley rats; settings: four and a half hour after administration
Description: The analgesic activity of compounds of the invention was assessed in a chronic constriction induced (CCI) model of neuropathic pain. […] The development of mechanical allodyna was monitored using a Dynamic Plantar Sesthesiomether as described in Example 18. This apparatus is an automated version of the classical von Frey filaments' test.
Pre-surgery baseline values were ascertained as the mean of 2 pre-surgery values. Once the baseline values are established, the animals were surgically prepared by constricting the right sciatic nerve with 4-0 chromic cat gut loose ligatures. On day 11 post-operation, the animals that have developed mechanical allodyna were arbitrarily allocated to the various treatment groups based on the pre-surgery values.
The design was randomized, performed in a masked fashion as to whether drug or vehicle is being given. Male Sprague Dawley rats (average body weight 240 g, Harlan, Israel), were allowed to acclimatize to the behavioral testing equipment prior to testing. On the testing day, the animals, at least six per treatment group, were administered the compounds and controls at a volume dosage of 5 ml/kg. Fifteen minutes later, the mechanical stimulus was applied and the force, measured in grams, causing a withdrawal response for each of the ipsilateral and contralateral hind paws was evaluated.
Results are expressed as mean±SEM for each treatment group and the differences among those groups are analyzed by analysis of variance (ANOVA) followed by post-hoc Tukey's test. A value of p<0.05 is considered to be statistically significant. Thereafter the difference in the force to be applied to the injured paw as compared to the normal paw was calculated. Δforce, expressed in grams, was measured at baseline and 1 and 4.5 hours after treatment.

Row | Structure (SMILES) | regained normal weight after [1] | transient loss in body weight ([1]; one day after TNBS instillation) | mortality ([1]; untreated 60%) | Difference in Ear Thickness, Baseline, Mean ([2]; 2 mg/kg IV) | Difference in Ear Thickness, Day 1, Mean ([2]; 2 mg/kg IV) | Difference in Ear Thickness, Day 2, Mean ([2]; 2 mg/kg IV) | decrease in ΔThickness, inhibition as compared to untreated animals ([2]; 2 mg/kg i.v.) | inhibition of the pain behavior (expressed in Δforce) as compared to baseline ([3]; 0.005 mg/kg i.v.) | inhibition of the pain behavior (expressed in Δforce) as compared to baseline ([3]; 0.01 mg/kg i.v.) | inhibition of the pain behavior (expressed in Δforce) as compared to baseline ([3]; 0.025 mg/kg i.v.) | inhibition of the pain behavior (expressed in Δforce) as compared to baseline ([3]; 0.5 mg/kg i.v.) | Difference in Ear Thickness, Baseline, Mean ([2]; 0.5 mg/kg IV) | Difference in Ear Thickness, Day 1, Mean ([2]; 0.5 mg/kg IV) | Difference in Ear Thickness, Day 2, Mean ([2]; 0.5 mg/kg IV) | decrease in ΔThickness, inhibition as compared to untreated animals ([2]; 0.5 mg/kg i.v.)
1 | CCCCC(C)(C)c1cc(O)c2c(c1)OC1CCCCC21 (stereo not drawn) [Compound C6S-3, 3-(1,1-dimethylpentyl)-5a,6,7,8,9,9a-hexahydro-dibenzofuran-1-ol] | 4 days of treatment | about 5% | 7% | 3.76 ×10^−2 mm | 8.64 ×10^−2 mm | 5.78 ×10^−2 mm | 25% |  |  |  |  |  |  |  | 
2 | CCCCCCC(C)(C)c1cc(O)c2c(c1)OC1C(O)CCCCC21 (stereo not drawn) [Compound C7S-2, 2-(1,1-dimethylheptyl)-5,6,7,8,9,9a-hexahydro-4bH-10-oxa-benzo[α]azulen-4,9-diol] |  |  |  |  |  |  |  | 58% | 67% | 84% | 92% | 3.66 ×10^−2 mm | 8.18 ×10^−2 mm | 5.90 ×10^−2 mm | 29%
